The subject of data set [1] is rats. In words: Toxicity screening study in rats, 4-hour inhalation. The class given is in vivo. Here is the method: To a 3-neck flask equipped with a magnetic stir bar and reflux condenser were charged 1,1,1,3,3,4,4,4-octafluoro-2-(trifluoromethyl)butan-2-olate cesium salt (300 g of a 33 wt % solution in diglyme, 237 mmol). The resultant reaction mixture was heated to 70° C. followed by the dropwise addition of iodomethane (17 mL, 273 mmol). The reaction mixture was allowed to stir overnight at the same temperature. After cooling to room temperature, H2O (400 mL) was added and the mixture was transferred to a 2 L separatory funnel. The bottom, fluorochemical layer was then separated and analyzed by GC-FID indicating a 58% yield of the title compound. Distillation afforded the desired 1,1,1,2,2,4,4,4-octafluoro-3-methoxy-3-(trifluoromethyl)butane (77° C., 740 mm/Hg, 32.1 g, 45% isolated yield) as a colorless liquid. The identity of the purified composition was confirmed by GC-MS analysis.

The nature of data set [2]: Chemical stability in the presence of triethylamine (TEA). The class given is physicochemical. Conditions: 50° C. Here is the method: (§1) Chemical Stability: Stability of compounds in the presence of the bases triethylamine (TEA), 1,4-diazabicyclo[2.2.2]octane (DABCO), and N,N,N,N-tetramethylethylene diamine (TMEDA) was tested as follows. To a 20 mL vial equipped with a magnetic stir bar were added the exemplary and comparative materials in the following starting amounts: Example 1-0.30 g (1.0 mmol), CE4-0.30 g (1.0 mmol) and CE5-0.30 g (1.0 mmol). FC-770 (0.40 g, 1.0 mmol) was added as an internal standard since it is known to be stable in the presence of the base materials tested herein. To this mixture was added one of: triethylamine (0.10 g, 1.0 mmol), DABCO (0.10 g, 0.89 mmol), or TMEDA (0.12 g, 1.0 mmol). The resultant mixture was stirred at 50° C. for 24 hours. GC-FID analysis was performed at specific time intervals to monitor the remaining hydrofluoroether and comparative materials present in the mixture.

Data set [3] in a line: Chemical stability in the presence of DABCO. Conditions: 50° C. The class given is physicochemical. Here is the method:
as §1

Data set [4] can be described thus: Chemical stability in the presence of TMEDA. Conditions: 50° C. The class given is physicochemical. Here is the method:
as §1

Data set [5] is described as follows: Chemical stability in the presence of NMP, fluoride ion content. Type of data set: physicochemical. Conditions: 50° C., 144 h, aqueous layer. Here is the method:
Stability of compounds in the presence of N-methylpyrrolidinone (NMP) was tested as follows. To a 20 mL glass vial equipped with a magnetic stir bar was added 0.66 g of NMP (6.7 mmol) and one of the following exemplary or comparative materials in the following starting amounts: Example 1-2.0 g (6.7 mmol); CE4-2.0 g (6.7 mmol); CE5-2.0 g (6.7 mmol), or CE6-2.40 g (6.7 mmol). This mixture was then stirred at 50° C. for 144 h. To the resultant mixture was added H2O (6.0 mL) and the aqueous layer was evaluated for fluoride ion content. The samples were analyzed using an Orion EA 940 meter with an Orion 9609BNWB Fluoride-ISE. Orion Ionplus Fluoride standards were used to calibrate the meter.

Data set [6] can be described thus: Specific heat capacity (Cp) by DSC. The class given is physicochemical. Here is the method: Specific heat capacity (Cp): Cp was measured using a TA Instruments Model Q2000 DSC (Differential Scanning Calorimeter) instrument. A sapphire standard was run before and after the samples and the average of the measured sapphire heat capacity vs. the theoretical heat capacity was used to correct the measured heat capacity of the sample.
In general terms: Differential scanning calorimetry records heat flow against a reference as temperature is scanned.

The nature of data set [7]: Kinematic viscosity, Schott-Ubbelohde viscometers. Type of data set: physicochemical. Here is the method: Kinematic viscosity: Kinematic viscosity was measured using Schott-Ubbelohde Viscometers (glass capillary viscometers). The viscometers were timed using a viscometer timer available under the trade designation AVS-350 from SI Analytics, College Station, Tex., USA. The viscometer measurement stand and glass viscometer were immersed in a temperature-controlled liquid bath filled with NOVEC 7500 fluid available from 3M Company, Maplewood, Minn., USA. The temperature-controlled liquid bath (available from Lawler Manufacturing Corporation, Edison, N.J., USA), was fitted with a copper tubing coil for liquid nitrogen cooling with fine temperature control provided by the bath's electronic temperature control heater. The fluid was mechanically stirred to provide uniform […] temperature in the bath. The bath controlled the temperature within +0.1° C., measured by a built-in RTD temperature sensor. The sample liquid was added to the viscometer between the two fill lines etched on the viscometer. The viscometer timer automatically pumped the sample fluid above the upper timing mark, then released the fluid and measured the efflux times between the upper and lower timing marks. The fluid meniscus was detected by optical sensors as it passed each timing mark. The sample was drawn up and measured repeatedly; results are provided as averages of multiple determinations. The glass viscometers were calibrated using certified kinematic viscosity standard fluids available from Cannon Instrument Company, State College, Pa., USA, to obtain a calibration constant (cSt/sec) for each viscometer. Kinematic viscosity in centiStokes (cSt) was calculated as the average efflux time (sec) times the viscometer calibration constant (cSt/sec).

Data set [8] can be described thus: Pour point, determined visually. Type of data set: physicochemical. Here is the method:
One to two milliliters of the sample were placed in a vial and cooled in a bath until it solidified. The sample was then allowed to warm slowly in the bath and observed every 3-5° C.

For the compound `COC(C(F)(F)F)(C(F)(F)F)C(F)(F)C(F)(F)F` [Example 1, 1,1,1,2,2,4,4,4-octafluoro-3-methoxy-3-(trifluoromethyl)butane], the “4-hour inhalation LC50” value in data set [1] is listed as > 1,840 ppm. For the same compound, the “Mole % of Starting Material” value in data set [2] (0 hr), in data set [2] (16 hr), in data set [2] (24 hr), in data set [3] (0 hr), in data set [3] (16 hr) and in data set [3] (24 hr) was 100 Mole % in each case. The “Mole % of Starting Material” value in data set [4] (0 hr), in data set [4] (16 hr) and in data set [4] (24 hr) was 100 Mole % throughout. Moreover, the Fluoride ion content in data set [5] turned out to be 15.1 ppm.

Consider `COC(C(F)(F)C(F)(F)F)(C(F)(F)C(F)(F)F)C(F)(F)C(F)(F)F` [Example 3, 1,1,1,2,2,4,4,5,5,5-decafluoro-3-methoxy-3-(1,1,2,2,2-pentafluoroethyl)pentane], for which the “Specific Heat Capacity” value in data set [6] was determined as 1.16 J/g · K. The “Kinematic Viscosity” value in data set [7] (0.0 ° C.) is 0.97 cSt; in data set [7] (−10.0 ° C.) it was 1.65 cSt; in data set [7] (−20.0 ° C.) it was 2.15 cSt; in data set [7] (−30.0 ° C.) it was 2.88 cSt; in data set [7] (−40.0 ° C.) it was 5.19 cSt. Also, the pour point in data set [8] was −62 °C.

Regarding `COC(F)(C(F)(F)F)C(F)(C(F)(F)F)C(F)(F)F` (centres unmarked) [CE4, 1,1,1,2,3,4,4,4-octafluoro-2-methoxy-3-(trifluoromethyl)butane], the “Mole % of Starting Material” value in data set [2] (0 hr) was 100 Mole %; in data set [2] (16 hr) it was 100 Mole %; in data set [2] (24 hr), 96.7 Mole %; in data set [3] (0 hr), 100 Mole %; in data set [3] (16 hr) it was 66.7 Mole %; in data set [3] (24 hr) it was 56.7 Mole %. Further, the results for the “Mole % of Starting Material” value in data set [4] (0 hr), in data set [4] (16 hr) and in data set [4] (24 hr) were 100 Mole %, 53.3 Mole % and 53.3 Mole %, respectively. Besides, the Fluoride ion content in data set [5] is given as 388.8 ppm.

For the compound `COC(F)(F)C(F)(C(F)(F)F)C(F)(F)C(F)(F)F` (centres unmarked) [CE5, 2-(difluoro(methoxy)methyl)-1,1,1,2,3,3,4,4,4-nonafluorobutane], the “Mole % of Starting Material” value in data set [2] (0 hr) was found to be 100 Mole %; in data set [2] (16 hr), 100 Mole %; in data set [2] (24 hr), 86.7 Mole %; in data set [3] (0 hr), 100 Mole %; in data set [3] (16 hr), 46.7 Mole %; in data set [3] (24 hr), 43.3 Mole %. The results for the “Mole % of Starting Material” value in data set [4] (0 hr), in data set [4] (16 hr) and in data set [4] (24 hr) were 100 Mole %, 36.7 Mole % and 36.7 Mole %, respectively. For the same compound, the Fluoride ion content in data set [5] stood at 657.8 ppm.

These data come from patent publication US20230087560A1, “HYDROFLUORETHERS AND METHODS OF USING SAME” (3M INNOVATIVE PROPERTIES COMPANY, priority 2020, published 2023).
